According to patent US7618975B2, “4-arylamino-quinazolines and analogs as activators of caspases and inducers of apoptosis and the use thereof” (Myriad Pharmaceuticals, Inc., priority 2003, dated 2009):

System: T-47D cells
Experiment: Caspase cascade activation (N-(Ac-DEVD)-N′-ethoxycarbonyl-R110 fluorogenic substrate) in T-47D cells; for Caspase activity Ratio T-47D (24 hr): test concentration or dose not given here; for Caspase activity Ratio T-47D (48 hr): test concentration or dose not given here
Type: cell-based, Human
Details: T-47D; for Caspase activity Ratio T-47D (24 hr) / Caspase activity Ratio T-47D (48 hr): ratio of net RFU to control

Row | SMILES | Caspase activity Ratio T-47D (24 hr) | Caspase activity Ratio T-47D (48 hr) | Ratio T-47D (48 hr) (48 hr, benzohydrazide analogs table)
1 | COc1ccc(N(C)c2nc(NC/C=C(\C)CCC=C(C)C)nc3cc(OC)c(OC)cc23)cc1 [Example 24, 6,7-Dimethoxy-N^2-(3,7-dimethyl-octa-2,6-dienyl)-N^4-(4-methoxy-phenyl)-N^4-methyl-quinazoline-2,4-diamine] | 1.0 | 2.4 | –
2 | COc1ccc(N(C)c2nc(C)nc3ncccc23)cc1 [Example 92, (4-Methoxy-phenyl)-(2-methyl-pyrido[2,3-d]pyrimidin-4-yl)-methyl-amine] | 10.1 | – | –
3 | Cc1nc(N(C)c2ccc(N=[N+]=[N-])cc2)c2ccccc2n1 [Example 102, (4-Azido-phenyl)-(2-methyl-quinazolin-4-yl)-methyl-amine] | 8.8 | 11.3 | –
4 | COc1ccc(N(C)c2nc(Cl)nc3ccc(C)cc23)cc1 [Example 56, (2-Chloro-6-methyl-quinazolin-4-yl)-(4-methoxy-phenyl)-methyl-amine] | – | 4.9 | –
5 | COc1ccc(N(C)c2nc(N(C)c3ccc(OC)cc3)c3c(Cl)cccc3n2)cc1 [Example 63, 5-Chloro-N^2,N^4-bis-(4-methoxy-phenyl)-N^2,N^4-dimethyl-quinazoline-2,4-diamine] | – | 10.9 | –
6 | COc1ccc(Oc2ncnc3ccccc23)cc1 [Example 71, 4-(4-Methoxy-phenoxy)-quinazoline] | – | 6.9 | –
7 | Cc1nc(N(C)c2ccc(N)cc2Br)c2ccccc2n1 [Example 104, (4-Amino-2-bromo-phenyl)-(2-methyl-quinazolin-4-yl)-methyl-amine] | 8.6 | – | –
8 | CCc1ccc(N(C)c2nc(C)nc3ccccc23)cc1 [Example 87, (4-Ethyl-phenyl)-(2-methyl-quinazolin-4-yl)-methyl-amine] | 6.3 | – | –
9 | Cc1nc(Nc2ccc(OC(C)C)cc2)c2ccccc2n1 [Example 80, (4-Isopropoxy-phenyl)-(2-methyl-quinazolin-4-yl)-amine] | 8.3 | – | –
10 | CCN(c1ccc(OC)cc1)c1nc(Cl)nc2ccccc12 [Example 40, (2-Chloro-quinazolin-4-yl)-ethyl-(4-methoxy-phenyl)-amine] | – | 6.1 | –
11 | COc1ccc(N(C)c2nc(Cl)nc3ccc(Cl)cc23)cc1 [Example 60, (2,6-Dichloro-quinazolin-4-yl)-(4-methoxy-phenyl)-methyl-amine] | – | 6.5 | –
12 | COc1ccc(N(C)c2nc(NCCN3CCOCC3)nc3cc(OC)c(OC)cc23)cc1 [Example 23, 6,7-Dimethoxy-N^4-(4-methoxy-phenyl)-N^4-methyl-N^2-(2-morpholin-4-yl-ethyl)-quinazoline-2,4-diamine] | 1.0 | 1.0 | –
13 | CN(c1ccccc1)c1nc(N(C)c2ccccc2)c2ccccc2n1 [Example 18, N^2,N^4-Dimethyl-N^2,N^4-diphenyl-quinazoline-2,4-diamine] | 1.0 | 1.0 | –
14 | COc1ccc(N(C)c2nc(C)nc3cc(N=[N+]=[N-])ccc23)cc1 [Example 114, (7-Azido-2-methyl-quinazolin-4-yl)-(4-methoxy-phenyl)-methyl-amine] | 7.2 | – | –
15 | CN(c1ccc(Oc2ccccc2)cc1)c1nc(Cl)nc2ccccc12 [Example 69, (2-Chloro-quinazolin-4-yl)-(4-phenoxy-phenyl)-methyl-amine] | – | 1 | –
16 | COc1ccc(N(C)c2nc(C)nc3cc([N+](=O)[O-])ccc23)cc1 [Example 112, (4-Methoxy-phenyl)-methyl-(2-methyl-7-nitro-quinazolin-4-yl)-amine] | 1.0 | – | –
17 | Cc1nc(N(C)c2ccc(C(=O)O)cc2)c2ccccc2n1 [Example 116, 4-(N-Methyl-N-(2-methylquinazolin-4-yl)amino)benzoic Acid] | 1.0 | – | –
18 | COc1c(Br)cc(N(C)c2nc(C)nc3ccc([N+](=O)[O-])cc23)cc1Br [Example 115, (3,5-Dibromo-4-methoxy-phenyl)-(2-methyl-6-nitro-quinazolin-4-yl)-methyl-amine] | 1.0 | – | –
19 | COc1ccc(Nc2nc(C)nc3ccccc23)c(F)c1 [Example 96, (2-Fluoro-4-methoxy-phenyl)-(2-methyl-quinazolin-4-yl)-amine] | 1.0 | – | –
20 | Cc1nc(N(C)c2ccc([N+](=O)[O-])cc2)c2ccccc2n1 [Example 100, (2-Methyl-quinazolin-4-yl)-(4-nitro-phenyl)-methyl-amine] | 8.9 | – | –
21 | COc1ccc(Nc2nc(Cl)nc3ccccc23)cn1 [Example 28, (2-Chloro-quinazolin-4-yl)-(6-methoxy-pyridin-3-yl)-amine] | 1.0 | 1.0 | –
22 | Cc1nc(N(C)c2ccc(C(=O)ON3C(=O)CCC3=O)cc2)c2ccccc2n1 [Example 119, Succinimidyl 4-(N-Methyl-N-(2-methylquinazolin-4-yl)amino)benzoic Acid Ester] | 11.8 | – | –
23 | Cc1nc(N(C)c2ccc(N(C)C)cc2)c2ccccc2n1 [Example 105, (4-Dimethylamino-phenyl)-(2-methyl-quinazolin-4-yl)-methyl-amine] | 8.5 | – | –

Row | SMILES | Caspase activity Ratio T-47D (24 hr) | Caspase activity Ratio T-47D (48 hr) | Ratio T-47D (48 hr) (48 hr, benzohydrazide analogs table)
24 | CSc1nc(N(C)NC(=O)c2cccc(C)c2)c2ccccc2n1 [N′,3-dimethyl-N′-(2-(methylthio)quinazolin-4-yl)benzohydrazide] | – | – | 12.7
25 | CN(c1ccc(O)cc1)c1nc(Cl)nc2ccccc12 [Example 54, (2-Chloro-quinazolin-4-yl)-(4-hydroxyphenyl)-methylamine] | – | 12.5 | –
26 | Cc1ccc(Nc2nc(Cl)nc3ccccc23)cc1 [Example 8, (2-Chloro-quinazolin-4-yl)-(4-methyl-phenyl)-amine] | 1.0 | – | –
27 | COc1ccc(N(C)c2nc(C(=O)O)nc3ccccc23)cc1 [Example 118, 4-(N-(4-Methoxy-phenyl)-N-methylamino)quinazoline-2-carboxylic Acid] | 1.0 | – | –
28 | COc1ccc(N(C)c2nc(N)nc3[nH]cnc23)cc1 [Example 17, N^6-(4-Methoxy-phenyl)-N-6-methyl-9H-purine-2,6-diamine] | 3.0 | – | –
29 | CN(c1ccc2c(c1)OCO2)c1nc(Cl)nc2ccccc12 [Example 67, (2-Chloro-quinazolin-4-yl)-(3,4-methylenedioxyphenyl)-methyl-amine] | – | 12.5 | –
30 | Cc1nc(N(C)c2cnccn2)c2ccccc2n1 [Example 134, (2-Methyl-quinazolin-4-yl)-(pyrazin-2-yl)-methyl-amine] | 1.2 | – | –
31 | Cc1nc(Nc2ccc(O)cc2)c2ccccc2n1 [Example 127, (4-hydroxy-phenyl)-(2-methyl-quinazolin-4-yl)-amine] | 1.2 | – | –
32 | CNc1nc(N(C)c2ccc(OC)cc2)c2ccccc2n1 [Example 123, (2-Methylamino-quinazolin-4-yl)-(4-methoxy-phenyl)-methyl-amine] | 8.2 | – | –
33 | C[C@H]1CC[C@@H](Nc2nc(Cl)nc3ccccc23)CC1 [Example 130, (2-Chloro-quinazolin-4-yl)-(cis-4-methylcyclohexyl)-amine] | 1.2 | – | –
34 | CN(c1nc(Cl)nc2ccccc12)[C@H]1CC[C@H](C)CC1 [Example 133, (2-Chloro-quinazolin-4-yl)-(trans-4-methylcyclohexyl)-methyl-amine] | 1.2 | – | –
35 | CN(c1ccc(OC(F)(F)F)cc1)c1nc(Cl)nc2ccccc12 [Example 5, (2-Chloro-quinazolin-4-yl)-(4-trifluoromethoxy-phenyl)-methyl-amine] | 10.3 | – | –
36 | COc1ccc(N(C)c2nc(CCl)nc3ccccc23)cc1 [Example 73, (2-Chloromethyl-quinazolin-4-yl)-(4-methoxy-phenyl)-methyl-amine] | 6.2 | 5.7 | –
37 | COc1ccc(N(C)c2nc(CF)nc3ccccc23)cc1 [Example 55, (2-Fluoromethyl-quinazolin-4-yl)-(4-methoxy-phenyl)-methyl-amine] | – | 9.0 | –
38 | COc1ccc(N(C)c2nc(NCCO)nc3ccccc23)cc1 [Example 11, N^2-(2-Hydroxylethyl)-N^4-(4-methoxy-phenyl)-N^4-methyl-quinazoline-2,4-diamine] | 9.0 | 12.5 | –
39 | COc1ccc2c(ccn2-c2nc(Cl)nc3ccccc23)c1 [Example 9, 2-Chloro-4-(5-methoxyindol-1-yl)quinazoline] | – | 1.8 | –
40 | COc1ccc(N(C)c2nc(NCCO)nc3cc(OC)c(OC)cc23)cc1 [Example 50, N^2-(2-Hydroxyethyl)-N^4-(4-methoxy-phenyl)-N^4-methyl-6,7-dimethoxyquinazoline-2,4-diamine] | – | 1.0 | –
41 | COc1ccc(N(C)c2nc(C)nc3ccc([N+](=O)[O-])cc23)cc1 [Example 109, (4-Methoxy-phenyl)-(2-methyl-6-nitro-quinazolin-4-yl)-methyl-amine] | 4.6 | – | –
42 | COc1ccc(N(C)c2nc(Cl)nc3[nH]cnc23)cc1 [Example 51, (2-Chloro-9H-purin-6-yl)-(4-methoxy-phenyl)-methyl-amine] | – | 0.9 | –
43 | CCOc1ccc(N(C)c2nc(Cl)nc3ccccc23)cc1 [Example 97, (2-Chloro-quinazolin-4-yl)-(4-ethoxy-phenyl)-methylamine] | – | 9.0 | –
44 | CN(c1ccc(Cl)cc1)c1nc(Cl)nc2ccccc12 [Example 3, (2-Chloro-quinazolin-4-yl)-(4-chloro-phenyl)-methyl-amine] | 8.1 | – | –
45 | COc1ccc(N(c2nc(C)nc3ccccc23)C(F)F)cc1 [Example 139, Difluoromethyl-(4-methoxy-phenyl)-(2-methyl-quinazolin-4-yl)-amine] | 5.6 | – | –
46 | COc1ccc(N(C)c2nc(C)nc3ccccc23)cc1F [Example 85, (3-Fluoro-4-methoxy-phenyl)-(2-methyl-quinazolin-4-yl)-methyl-amine] | 7.6 | – | –
